Assay results reported in patent US20120059021A1, “COMPOSITIONS AND METHODS FOR TREATING CANCER AND METHODS FOR PREDICTING A RESPONSE TO SUCH TREATMENTS” (UNIVERSITY OF WASHINGTON, priority 2008, published 2012).

How the values were obtained:
MEL624 = experiment: Flow cytometry for active (cleaved) caspase-3, MEL624; format: cell-based, human; settings: WNT3A, 2 μM PLX4720, 24 hours
Description: (§1) Flow cytometry for Active Caspase-3. Cells were seeded in a 6-well dish at a density to achieve 90-100% confluence at harvest. 24 hours after seeding, cells were treated with the indicated conditions for the indicated amount of time. At the time of collection, supernatants were collected and pooled with trypsinized cells. Cells were fixed with 4% paraformaldehyde and permeabilized according to vendor's protocol for Cleaved Caspase-3 (Asp175) Antibody (AlexaFluor 488 Conjugate) (catalog #9669) (Cell Signaling, Beverly Mass.). The antibody was used at a final dilution of 1:100. Flow was performed on a BD FACSCanto H, and data analysed with FlowJo 8.8.6 (Tree Star) software. Experiments were performed with biological triplicates and data are representative of at least three independent experiments. For experiments involving siRNAs, cells were reverse transfected with 20 nM siRNA in 6-well dishes in triplicate with RNAiMax according to manufacturer's protocol. 48 hours following transfection, cells were treated with the indicated conditions for 24 hours and then harvested for analysis. Cells were harvested, stained, and analyzed as described above.

ERK1/2 phosphorylation = ERK1/2 phosphorylation in human epidermal melanocytes; format: cell-based; settings: HEMs
From the text: Cell Lines. The human melanoma cell lines A375, A2058 and Me1624 were obtained from Cassian Yee (Fred Hutchinson Cancer Research Institute; Seattle, Wash.). The human melanoma cell lines COLO-829, SKMEL28, SKMEL5 were purchased from ATCC (Manassas, Va.). Human Epidermal Melanocytes, adult, lightly pigmented donor, (HEMa-LP) (C0245C) were purchased from Invitrogen (Carlsbad, Calif.). Stable BAR cell lines were generated as previously described (23). BAR luciferase cell lines were also infected with a lentivirus carrying Renilla luciferase driven by a constitutive EFlalpha promoter.
Cell Culture. The human melanoma lines A375, A2058 were cultured in DMEM supplemented with 5% FBS and 1% antibiotic. The human melanoma lines SK-MEL-5 and SK-MEL-28 were grown in EMEM supplemented with 10% FBS and 1% antibiotic. The human melanoma lines COLO-829 and MEL-624 were grown in RPMI supplemented with 10% FBS and 1% antibiotic HEMa-LP cells were cultured in medium 254 supplemented with 1% HMGS and 1% antibiotic (Invitrogen Carlsbad, Calif.). Synthetic siRNAs were transfected into cultured cells at a final concentration of 20 nM using RNAiMAX (Invitrogen; Grand Island, N.Y.).

[1] = test system: human A375 melanoma cells; experiment: Resazurin-based assay for cell viability
[2] = test system: human epidermal melanocytes (HEM); experiment: qPCR of endogenous Wnt target gene AXIN2, human epidermal melanocytes (HEM); format: cell-based; settings: WNT3A CM, 2 μM PLX4720, 24 hours
From the text: RNA purification and qRT-PCR analysis. RNA was purified using the RNeasy kit following the manufacturer's protocol (Qiagen; Maryland, Md.). cDNA was synthesized using RevertAid™ M-MuLV Reverse Transcriptase (Fermentas; Ontario, CAN). Light Cycler FastStart DNA Master SYBR Green1 (Roche; Mannheim, Germany) was used for real-time PCR as previously described (53). Quantitative PCR results presented in the manuscript are averages of a minimum of three biologic replicates.

β-catenin [3] = experiment: Cytosolic and nuclear β-catenin fractionation; format: cell-based, human; settings: A375, 24 hours
Description: Cytosolic and Nuclear β-catenin Fractionation. Cells were plated in 100 mm dishes. 24 hours following plating, cells were treated with the indicated conditions for 24 hours. Cells were gently rinsed with PBS and harvested by scraping in 500 uL of hypotonic lysis buffer (50 mM HEPES pH 8.0, 1 mM EDTA, 1 mM DTT) containing protease and phosphatase inhibitors. Cells were swelled on ice for 30 minutes and then passed through a 27 gauge needle ten times and checked for complete lysis with a microscope. Lysates were centrifuged at 10,000×g for 20 minutes and supernatant was collected as the cytosolic fraction. Pelleted membranes were washed 5 times with hypotonic lysis buffer and then solubilized with solubilization buffer (50 mM Tris pH 8.0, 150 mM NaCl, 0.1% SDS, 0.5% sodium deoxycholate, 1% Triton X-100) containing protease and phosphatase inhibitors. After a 30 minute incubation on ice, lysates were centrifuged at 16,000×g for 20 minutes. The protein concentration of the cleared supernatant was determined by BCA analysis and an equal amount of protein and volume was then incubated with pre-washed Con A sepharose beads overnight at 4 degree C. Supernatant was collected as the nuclear fraction.

A2058 = experiment: Flow cytometry for active (cleaved) caspase-3, A2058; format: cell-based, human; settings: 2 uM PLX4720, 24 hours, in % (unit assumed)
Description: as §1, with “experiments.” for “experiments. For experiments involving siRNAs, cells were reverse transfected with 20 nM siRNA in 6-well dishes in triplicate with RNAiMax according to manufacturer's protocol. 48 hours following transfection, cells were treated with the indicated conditions for 24 hours and then harvested for analysis. Cells were harvested, stained, and analyzed as described above.”
(§2) For experiments involving siRNAs, cells were reverse transfected with 20 nM siRNA in 6-well dishes in triplicate with RNAiMax according to manufacturer's protocol. 48 hours following transfection, cells were treated with the indicated conditions for 24 hours and then harvested for analysis. Cells were harvested, stained, and analyzed as described above.

β-catenin [4] = experiment: Immunoblot for β-catenin phosphorylation at Ser33/Ser37/Thr41 in A375 cells; format: cell-based, human
SKMEL28 = experiment: Flow cytometry for active (cleaved) caspase-3, SKMEL28; format: cell-based, human; settings: 2 uM PLX4720, 24 hours, in % (unit assumed)
Description: as §1, with “experiments.” for “experiments. For experiments involving siRNAs, cells were reverse transfected with 20 nM siRNA in 6-well dishes in triplicate with RNAiMax according to manufacturer's protocol. 48 hours following transfection, cells were treated with the indicated conditions for 24 hours and then harvested for analysis. Cells were harvested, stained, and analyzed as described above.”
as §2

CCCS(=O)(=O)Nc1ccc(F)c(C(=O)c2c[nH]c3ncc(Cl)cc23)c1F [PLX4720, N-[3-[(5-Chloro-1H-pyrrolo[2,3-b]pyridin-3-yl)carbonyl]-2,4-difluorophenyl]-1-propanesulfonamide]
SYNERGISTIC APOPTOSIS WITH WNT AND PLX4720? (MEL624): YES
ERK1/2 phosphorylation (ERK1/2 phosphorylation): no effect
cell viability / proliferation (resazurin) [1]: further decreases cell viability
AXIN2 transcript levels [2]: did not exhibit any increase in AXIN2 transcript levels
steady-state levels of cytosolic or nuclear β-catenin (β-catenin [3]): did not result in increased steady-state levels of cytosolic or nuclear β-catenin
cleaved caspase-3-positive cells (A2058; AXIN1/2 siRNA, L CM): 12.67 ± 0.89
cleaved caspase-3-positive cells (A2058; AXIN1/2 siRNA, W3A CM): 15.07 ± 1.6
cleaved caspase-3-positive cells (A2058; Control siRNA, L CM): 3.39 ± 0.17
cleaved caspase-3-positive cells (A2058; Control siRNA, W3A CM): 4.45 ± 0.41
phosphorylation of β-catenin at GSK3β sites (Ser33/Ser37/Thr41) (β-catenin [4]): decreased phosphorylation of β-catenin
cleaved caspase-3-positive cells (SKMEL28; AXIN1/2 siRNA, L CM): 31.47 ± 0.13
cleaved caspase-3-positive cells (SKMEL28; AXIN1/2 siRNA, W3A CM): 33.93 ± 4.1
cleaved caspase-3-positive cells (SKMEL28; Control siRNA, L CM): 6.02 ± 0.63
cleaved caspase-3-positive cells (SKMEL28; Control siRNA, W3A CM): 8.64 ± 1.9
